The source of these data is PubChem BioAssay (NCI).

Test systems include SNB-78 CNS; NCI-H460 lung; HOP-18 NSCLC; MDA-MB-231 breast; MDA-MB-435; PC-3 prostate; HS 578T breast; DU-145 prostate; BT-549 breast; SN12K1 renal; P388 leukemia; P388/ADR leukemia.
Assay in all cases: NCI tumour cell line growth inhibition, 48 h

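Protocol summary: plate cells (96-well), add compound at 5 concentrations, incubate 48 h, interpolate endpoints linearly. Abbreviation: GI50, concentration required for 50% inhibition of growth. At the TGI there is no net growth.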

For `O=[N+]([O-])c1ccc(C2=Nc3ccccc3SC(c3ccccc3)C2)cc1` (stereo not drawn), the TGI in the assay on SNB-78 CNS turned out to be 70.9 µM; in the assay on NCI-H460 lung, 43.9 µM.

In the case of `O=C([CH-]C(=O)c1ccccc1)c1ccccc1.O=C([CH-]C(=O)c1ccccc1)c1ccccc1.[O]=[U+2]=[O]`, the GI50 was 1.99 µM in the assay on NCI-H460 lung and 5.3 µM with HOP-18 NSCLC. Moreover, the TGI with NCI-H460 lung was 13.1 µM; in the assay on HOP-18 NSCLC, 24.9 µM.

As to `O=C(c1ccco1)C1CC(c2c(O)ccc3ccccc23)=NN1` (stereo not drawn), the TGI is 19.9 µM with NCI-H460 lung; 37.3 µM with MDA-MB-231 breast; 22.4 µM with MDA-MB-435; 21.1 µM in the assay on PC-3 prostate; 46.3 µM in the assay on HS 578T breast; 30.8 µM in the assay on DU-145 prostate. Moreover, the TGI in the assay with BT-549 breast is 31 µM.

For `NC(=O)c1ncn2c1NC(=O)CC2`, the TGI in the assay on SN12K1 renal is more than 100 µM; in the assay with SNB-78 CNS it was more than 86.8 µM; with NCI-H460 lung it was more than 100 µM; with HOP-18 NSCLC, more than 100 µM; in the assay on P388 leukemia, more than 31.6 µM; in the assay on P388/ADR leukemia it was more than 100 µM.

With `COC(=O)C1=C(O)C(C(=O)OC)[C@@]2(O)[C@@H](C(=O)OC)[C@H](C)[C@@H](C)[C@@H]1[C@@H]2C(=O)OC` (stereo partly drawn), the TGI in the assay with NCI-H460 lung is more than 100 µM; in the assay with MDA-MB-231 breast, more than 100 µM; with MDA-MB-435, 39.2 µM; in the assay with HS 578T breast it was more than 100 µM; in the assay with DU-145 prostate, more than 100 µM; with BT-549 breast, more than 100 µM.

Regarding `CC1(C)OC2CC(=O)OCC23C1CC(=O)C1(C)C3CCC2(C)C(c3ccoc3)OC(=O)C3OC321` (stereo not drawn), the TGI in the assay with SN12K1 renal was more than 125 µM; in the assay on SNB-78 CNS, more than 125 µM; in the assay with NCI-H460 lung, more than 125 µM; in the assay on HOP-18 NSCLC, more than 125 µM; with P388 leukemia it was more than 39.5 µM; with P388/ADR leukemia it was more than 125 µM.

Turning to `CCN1C(=O)N(CC)C2Nn3c(s/c(=C4\C(=O)N(C)c5ccccc54)c3=O)=NC21` (stereo not drawn), the figures for the GI50 in the assay on NCI-H460 lung, with MDA-MB-231 breast and in the assay with PC-3 prostate were 3.35 µM, 3.42 µM and 3.52 µM, respectively. The TGI with NCI-H460 lung, in the assay with MDA-MB-231 breast and in the assay on PC-3 prostate was more than 100 µM in each case.

In the case of `CCCCC#CS(=O)(=O)C(F)(F)F`, the TGI in the assay with SN12K1 renal is more than 100 µM; with SNB-78 CNS it was more than 100 µM; in the assay with NCI-H460 lung, more than 100 µM; in the assay with HOP-18 NSCLC it was more than 100 µM; in the assay with P388 leukemia, 63.2 µM; with P388/ADR leukemia it was more than 100 µM.

As to `Cc1c2ccncc2c(C)c2c1[nH]c1ccccc12`, the TGI is 3.37 µM with SN12K1 renal; 7.88 µM in the assay on SNB-78 CNS; 1.32 µM in the assay with NCI-H460 lung; 6.03 µM in the assay with MDA-MB-231 breast; 2.21 µM with MDA-MB-435; 8.55 µM with PC-3 prostate. Besides, the TGI worked out at 6.38 µM with HOP-18 NSCLC; 5.45 µM in the assay on HS 578T breast; 2.89 µM with P388 leukemia; 2.13 µM with DU-145 prostate; 3.34 µM in the assay on BT-549 breast; 4.32 µM in the assay on P388/ADR leukemia. The GI50 with MDA-MB-231 breast was 1.45 µM; in the assay on MDA-MB-435, 0.762 µM; in the assay with PC-3 prostate, 1.2 µM; in the assay on HS 578T breast, 1.37 µM; in the assay on DU-145 prostate, 0.695 µM; in the assay on BT-549 breast, 1.56 µM.

As to `O=C(OCc1ccccc1)C(Cc1ccccc1)N(Cc1ccccc1)Cc1ccccc1` (stereo not drawn), the TGI in the assay on SNB-78 CNS and with NCI-H460 lung was more than 100 µM in each case.
